Reference: the supplement of paper PMC12076712

Legend:
Test in all cases: pIC50, kinobeads binding competition
LZK = LZK (UniProt O43283); conditions: cell material: Lysate mix
Outline: (§1)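 Nine compound concentrations were tested, starting at 30 μM in 1:4 steps on live Jurkat cells (60 min, 37 °C, then lysis) or in 1:5 steps on Jurkat lysate or a 1:1:1:1 HEK293/K-562/HepG2/placenta lysate mix (60 min, 4 °C). Kinobeads-bound proteins were digested and quantified with TMT10 LC-MS/MS. pIC50 values are from logistic dose-response fits in the R drc package of fold changes relative to vehicle, from biological duplicates.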

AKT1 = AKT1 (UniProt P31749)
AKT1, sequence (P31749 whole entry): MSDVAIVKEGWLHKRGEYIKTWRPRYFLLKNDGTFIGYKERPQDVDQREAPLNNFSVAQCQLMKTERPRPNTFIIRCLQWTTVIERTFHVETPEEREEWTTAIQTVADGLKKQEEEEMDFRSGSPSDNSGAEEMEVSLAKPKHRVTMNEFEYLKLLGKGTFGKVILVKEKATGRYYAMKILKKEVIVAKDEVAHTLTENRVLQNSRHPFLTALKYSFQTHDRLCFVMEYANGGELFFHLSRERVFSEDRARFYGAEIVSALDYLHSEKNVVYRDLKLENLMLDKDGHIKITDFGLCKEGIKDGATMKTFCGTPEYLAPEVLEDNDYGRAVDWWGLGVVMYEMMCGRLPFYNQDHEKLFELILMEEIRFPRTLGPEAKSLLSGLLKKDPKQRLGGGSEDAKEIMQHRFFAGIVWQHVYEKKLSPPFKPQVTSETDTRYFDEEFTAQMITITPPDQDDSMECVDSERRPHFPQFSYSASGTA
Outline: as §1

BLK = BLK (UniProt P51451)
BLK, sequence (P51451 whole entry, looked up): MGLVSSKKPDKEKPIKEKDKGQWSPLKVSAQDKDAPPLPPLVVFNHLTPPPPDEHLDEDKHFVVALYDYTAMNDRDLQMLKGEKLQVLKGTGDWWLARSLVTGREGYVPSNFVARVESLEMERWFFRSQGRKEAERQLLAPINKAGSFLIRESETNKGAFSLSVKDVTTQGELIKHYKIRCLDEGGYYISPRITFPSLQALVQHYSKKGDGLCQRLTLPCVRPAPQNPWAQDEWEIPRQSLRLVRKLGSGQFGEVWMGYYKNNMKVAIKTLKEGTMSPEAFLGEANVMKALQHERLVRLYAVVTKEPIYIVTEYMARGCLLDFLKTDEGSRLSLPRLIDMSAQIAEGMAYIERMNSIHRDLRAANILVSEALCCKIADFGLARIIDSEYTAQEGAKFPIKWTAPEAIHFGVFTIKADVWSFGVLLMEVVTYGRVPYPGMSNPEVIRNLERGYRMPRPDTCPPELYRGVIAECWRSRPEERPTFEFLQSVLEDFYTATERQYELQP
Outline: as §1

UniProt O00506 = target: UniProt O00506
UniProt O00506, sequence (O00506 whole entry, looked up): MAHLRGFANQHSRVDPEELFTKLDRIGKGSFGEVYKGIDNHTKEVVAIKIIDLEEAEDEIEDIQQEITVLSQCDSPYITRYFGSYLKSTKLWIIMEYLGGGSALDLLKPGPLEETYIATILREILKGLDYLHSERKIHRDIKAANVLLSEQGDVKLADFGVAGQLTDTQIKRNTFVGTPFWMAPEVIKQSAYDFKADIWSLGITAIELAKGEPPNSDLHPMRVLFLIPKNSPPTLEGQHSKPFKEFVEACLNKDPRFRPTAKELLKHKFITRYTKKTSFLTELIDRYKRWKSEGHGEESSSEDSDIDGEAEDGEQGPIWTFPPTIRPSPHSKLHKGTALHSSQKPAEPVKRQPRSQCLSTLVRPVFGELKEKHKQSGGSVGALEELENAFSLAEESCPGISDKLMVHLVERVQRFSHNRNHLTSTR
Outline: as §1

TLK2 = TLK2 (UniProt Q86UE8); conditions: cell material: Jurkat cells
TLK2, sequence (Q86UE8 whole entry, looked up): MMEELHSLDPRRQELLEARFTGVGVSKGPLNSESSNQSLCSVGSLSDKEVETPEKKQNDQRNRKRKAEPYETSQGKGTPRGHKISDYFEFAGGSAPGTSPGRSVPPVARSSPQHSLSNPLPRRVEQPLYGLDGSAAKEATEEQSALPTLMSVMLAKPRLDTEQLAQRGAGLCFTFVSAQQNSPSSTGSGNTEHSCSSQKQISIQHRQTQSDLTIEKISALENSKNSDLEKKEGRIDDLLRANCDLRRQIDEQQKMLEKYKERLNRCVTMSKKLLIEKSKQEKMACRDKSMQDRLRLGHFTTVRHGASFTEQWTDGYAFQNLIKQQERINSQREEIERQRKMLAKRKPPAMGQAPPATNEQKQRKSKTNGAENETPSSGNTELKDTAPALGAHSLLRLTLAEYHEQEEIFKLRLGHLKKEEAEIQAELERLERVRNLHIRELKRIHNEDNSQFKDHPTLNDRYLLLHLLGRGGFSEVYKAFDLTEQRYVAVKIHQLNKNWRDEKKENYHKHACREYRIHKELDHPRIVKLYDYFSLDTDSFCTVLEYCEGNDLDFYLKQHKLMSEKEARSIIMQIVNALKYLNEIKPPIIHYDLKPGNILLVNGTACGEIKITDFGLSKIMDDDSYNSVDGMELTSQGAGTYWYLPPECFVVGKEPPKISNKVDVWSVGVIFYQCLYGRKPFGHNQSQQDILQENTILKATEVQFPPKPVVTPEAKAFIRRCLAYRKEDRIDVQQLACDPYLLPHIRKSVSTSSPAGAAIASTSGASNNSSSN
Outline: as §1

SNRK = target: T1, SNRK (UniProt Q9NRH2)
T1 sequence (whole entry): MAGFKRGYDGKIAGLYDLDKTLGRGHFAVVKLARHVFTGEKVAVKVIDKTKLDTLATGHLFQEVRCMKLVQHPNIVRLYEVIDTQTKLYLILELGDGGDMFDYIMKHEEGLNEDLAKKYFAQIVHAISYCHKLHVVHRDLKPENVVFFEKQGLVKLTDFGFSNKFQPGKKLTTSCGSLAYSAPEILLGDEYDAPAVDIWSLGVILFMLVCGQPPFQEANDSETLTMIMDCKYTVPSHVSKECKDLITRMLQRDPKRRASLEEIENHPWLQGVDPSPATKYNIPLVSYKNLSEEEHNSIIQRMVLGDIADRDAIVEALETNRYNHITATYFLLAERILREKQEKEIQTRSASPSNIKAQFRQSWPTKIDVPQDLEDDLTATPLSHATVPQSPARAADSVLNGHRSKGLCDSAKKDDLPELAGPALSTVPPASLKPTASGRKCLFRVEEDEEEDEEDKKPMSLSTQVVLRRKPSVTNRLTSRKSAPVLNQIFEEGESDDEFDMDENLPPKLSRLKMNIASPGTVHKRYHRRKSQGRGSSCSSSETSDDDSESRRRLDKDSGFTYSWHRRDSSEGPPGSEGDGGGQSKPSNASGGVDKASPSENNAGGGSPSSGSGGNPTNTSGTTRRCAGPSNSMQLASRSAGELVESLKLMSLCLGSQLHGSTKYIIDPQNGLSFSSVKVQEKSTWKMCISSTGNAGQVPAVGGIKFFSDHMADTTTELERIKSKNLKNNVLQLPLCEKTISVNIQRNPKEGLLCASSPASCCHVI
Outline: as §1

ITK = target: T2, ITK (UniProt Q08881)
T2 sequence (whole entry): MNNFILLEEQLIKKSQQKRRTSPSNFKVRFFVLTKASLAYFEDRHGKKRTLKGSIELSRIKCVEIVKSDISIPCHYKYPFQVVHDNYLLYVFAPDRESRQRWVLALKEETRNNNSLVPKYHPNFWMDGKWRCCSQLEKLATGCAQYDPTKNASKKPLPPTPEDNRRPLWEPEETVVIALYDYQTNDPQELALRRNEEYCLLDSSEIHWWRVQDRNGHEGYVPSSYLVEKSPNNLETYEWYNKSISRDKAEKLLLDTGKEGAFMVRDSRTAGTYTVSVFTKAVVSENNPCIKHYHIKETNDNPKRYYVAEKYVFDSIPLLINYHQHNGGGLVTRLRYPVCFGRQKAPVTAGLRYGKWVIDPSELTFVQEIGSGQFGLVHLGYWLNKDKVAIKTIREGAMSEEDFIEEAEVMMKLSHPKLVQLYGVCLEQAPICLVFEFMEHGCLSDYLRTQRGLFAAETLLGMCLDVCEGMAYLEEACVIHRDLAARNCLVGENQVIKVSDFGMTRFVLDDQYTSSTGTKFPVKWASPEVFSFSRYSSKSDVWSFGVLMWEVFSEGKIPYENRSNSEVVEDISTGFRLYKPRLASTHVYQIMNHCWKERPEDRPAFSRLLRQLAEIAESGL
Outline: as §1

TXK = target: T3, TXK (UniProt P42681)
T3 sequence (whole entry): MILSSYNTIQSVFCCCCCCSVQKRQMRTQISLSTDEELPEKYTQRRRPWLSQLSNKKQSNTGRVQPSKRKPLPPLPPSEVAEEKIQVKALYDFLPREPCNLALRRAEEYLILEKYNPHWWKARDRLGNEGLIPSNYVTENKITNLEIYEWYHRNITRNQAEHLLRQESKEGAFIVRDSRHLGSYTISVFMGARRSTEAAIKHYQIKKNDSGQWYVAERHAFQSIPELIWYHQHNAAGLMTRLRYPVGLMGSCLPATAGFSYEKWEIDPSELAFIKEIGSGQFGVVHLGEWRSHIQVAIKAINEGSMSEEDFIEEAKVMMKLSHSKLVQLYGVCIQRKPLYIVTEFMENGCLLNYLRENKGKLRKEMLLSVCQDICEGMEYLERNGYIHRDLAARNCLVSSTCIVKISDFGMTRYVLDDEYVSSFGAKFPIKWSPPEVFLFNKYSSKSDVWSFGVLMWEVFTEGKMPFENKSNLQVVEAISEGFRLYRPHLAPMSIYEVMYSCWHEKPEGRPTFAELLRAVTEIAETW
Outline: as §1

RIOK1 = target: T4, RIOK1 (UniProt Q9BRS2)
T4 sequence (whole entry): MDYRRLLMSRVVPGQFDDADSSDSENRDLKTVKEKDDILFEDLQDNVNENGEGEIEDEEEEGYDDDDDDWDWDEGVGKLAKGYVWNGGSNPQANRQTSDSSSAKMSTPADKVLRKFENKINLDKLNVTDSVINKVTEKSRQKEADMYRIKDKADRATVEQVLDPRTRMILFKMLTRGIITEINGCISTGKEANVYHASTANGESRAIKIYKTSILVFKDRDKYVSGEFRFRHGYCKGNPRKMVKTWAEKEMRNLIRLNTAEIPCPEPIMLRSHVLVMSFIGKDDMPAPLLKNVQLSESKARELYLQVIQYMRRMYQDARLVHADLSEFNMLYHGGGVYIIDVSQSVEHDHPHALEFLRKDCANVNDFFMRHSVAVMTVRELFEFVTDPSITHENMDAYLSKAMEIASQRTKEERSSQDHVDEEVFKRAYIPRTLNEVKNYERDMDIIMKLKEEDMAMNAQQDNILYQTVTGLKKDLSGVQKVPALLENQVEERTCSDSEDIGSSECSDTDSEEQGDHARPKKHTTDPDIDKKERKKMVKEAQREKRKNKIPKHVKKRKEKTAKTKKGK
Outline: as §1

LZK, sequence (O43283 whole entry): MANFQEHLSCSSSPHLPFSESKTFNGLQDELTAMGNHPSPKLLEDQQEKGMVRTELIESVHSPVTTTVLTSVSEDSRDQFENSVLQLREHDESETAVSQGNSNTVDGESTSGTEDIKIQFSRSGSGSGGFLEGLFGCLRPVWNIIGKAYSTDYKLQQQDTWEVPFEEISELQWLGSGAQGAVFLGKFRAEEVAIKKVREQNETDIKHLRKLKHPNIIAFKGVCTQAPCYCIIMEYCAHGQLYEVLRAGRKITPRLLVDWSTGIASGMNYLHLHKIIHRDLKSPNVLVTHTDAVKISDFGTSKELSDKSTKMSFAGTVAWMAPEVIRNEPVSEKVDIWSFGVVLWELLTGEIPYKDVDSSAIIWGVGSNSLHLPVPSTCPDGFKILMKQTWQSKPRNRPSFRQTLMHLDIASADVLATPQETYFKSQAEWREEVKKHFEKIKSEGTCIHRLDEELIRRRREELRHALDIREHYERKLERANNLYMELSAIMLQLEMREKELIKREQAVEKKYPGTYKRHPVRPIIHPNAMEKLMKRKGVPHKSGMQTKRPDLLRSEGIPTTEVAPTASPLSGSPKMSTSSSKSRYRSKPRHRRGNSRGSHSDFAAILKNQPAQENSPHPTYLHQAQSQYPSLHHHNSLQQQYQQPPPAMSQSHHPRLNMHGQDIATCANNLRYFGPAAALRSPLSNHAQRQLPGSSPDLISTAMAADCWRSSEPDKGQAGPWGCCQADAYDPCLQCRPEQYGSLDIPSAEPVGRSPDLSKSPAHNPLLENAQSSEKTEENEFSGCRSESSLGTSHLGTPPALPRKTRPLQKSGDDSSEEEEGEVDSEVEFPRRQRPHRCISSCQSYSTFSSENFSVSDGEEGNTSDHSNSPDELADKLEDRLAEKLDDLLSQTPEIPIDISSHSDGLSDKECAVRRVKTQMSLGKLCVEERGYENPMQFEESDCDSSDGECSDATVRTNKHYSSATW

| pIC50 (LZK) | pIC50 (AKT1; cell material: Jurkat lysate) | pIC50 (UniProt O00506; cell material: Lysate mix) | Compound | pIC50 (AKT1; cell material: Jurkat cells) | pIC50 (BLK; cell material: Jurkat cells) | pIC50 (BLK; cell material: Jurkat lysate) | pIC50 (TLK2) | pIC50 (SNRK; cell material: Jurkat lysate) | pIC50 (ITK; cell material: Jurkat cells) | pIC50 (ITK; cell material: Jurkat lysate) | pIC50 (TXK; cell material: Jurkat cells) | pIC50 (TXK; cell material: Jurkat lysate) | pIC50 (RIOK1; cell material: Jurkat cells) | pIC50 (RIOK1; cell material: Jurkat lysate) | pIC50 (UniProt O00506; cell material: Jurkat lysate) | pIC50 (SNRK; cell material: Jurkat cells) |
| --- | --- | --- | --- | --- | --- | --- | --- | --- | --- | --- | --- | --- | --- | --- | --- | --- |
| < 4.52 | – | – | Cc1cc(Nc2cc(C(=O)NCCNC(=O)OC3CC/C=C/CCC3)nc(N3CCN(Cc4ccc(S(=O)(=O)F)cc4)CC3)n2)n[nH]1 (stereo not drawn) | – | – | – | – | – | – | – | – | – | – | – | – | – |
| – | < 4.52 | < 4.52 | O=C(NCCNC(=O)c1cc(Nc2cc(C3CC3)[nH]n2)nc(N2CCN(Cc3ccc(S(=O)(=O)F)cc3)CC2)n1)OC1CC/C=C/CCC1 (stereo not drawn) | < 4.52 | 6.73 | 5.1 | < 4.52 | < 4.52 | 6.7 | < 4.52 | < 4.52 | < 4.52 | < 4.52 | < 4.52 | – | – |
| – | – | – | C#CCNC(=O)c1cc(Nc2cc(C3CC3)[nH]n2)nc(N2CCN(Cc3ccc(S(=O)(=O)F)cc3)CC2)n1 | 4.92 | 6.82 | 6.51 | < 4.52 | < 4.52 | 6.78 | 5.4 | 5.4 | < 4.52 | < 4.52 | < 4.52 | 6.59 | 5.47 |
| 5.12 | – | – | CCNC(=O)c1cc(Nc2cc(C3CC3)[nH]n2)nc(N2CCN(Cc3ccc(S(=O)(=O)F)cc3)CC2)n1 | – | – | – | – | – | – | – | – | – | – | – | – | – |
